Laboratory results reported in patent US11752169B2, “Treatment of pain with polysulfated polysaccharides” (PARADIGM BIOPHARMACEUTICALS LTD., priority 2018, dated 2023).
Entries after “also recorded” stand apart in the source; their conditions may differ.

Key:
MMP13 = MMP13 immunostaining / confocal microscopy of KOA osteocyte-like cultures; type: cell-based, human; details: KOA2 cells, rhTNFα + PPS 50 μg/mL (FIG. 21)
Procedure: FIG. 21. The effect of PPS treatment on basal and TNFα-induced MMP13 expression in human KOA osteocyte-like cultures. Confocal microscopy imaging of immunostaining of KOA2 cells untreated stained with isotype control primary antibody or mouse anti-human anti-MMP13 antibody (top row), or treated with rhTNFα alone or rhTNFα+PPS (50 μg/mL) and stained for MMP13 (green staining). All nuclei are stained with DAPI (blue). A) Isotype IgG control; B) Untreated; anti-MMP13; C) rhTNF-α-treated; anti-MMP13; and D) rhTNFa+PPS50; anti-MMP13.
(§1) Cell seeded in 8-well chamber slides and differentiated for 28 days or freshly digested from bone were either untreated or treated with rhTNFα (1 ng/mL), PPS (50 μg/mL; ‘PPS50’) or PPS50+rhTNFα. Following differentiation, medium was removed and all wells rinsed with PBS (pH 7.4, Gibco) a total of three times. Cells were then fixed with 100 μL of Histochoice (Sigma-Aldrich) tissue fixative for 1 hour at room temperature. After fixation, wells were rinsed twice with distilled H2O and stored at 4° C. until staining. Cells were blocked with 50 μL of blocking buffer (5% v/v normal rabbit serum in 1×PBS) for 20 minutes at room temperature in a humid chamber. Cells were then rinsed with wash buffer (0.1% v/v normal rabbit serum in PBS) three times. […]

NGF = NGF immunostaining / confocal microscopy of osteocytes freshly isolated from human KOA bone; type: cell-based; details: osteocyte-enriched fractions of KOA bone digests, 24 h, qualitative (FIG. 22)
Procedure: FIG. 22. NGF expression in isolated human osteocytes. Osteocyte-enriched fractions of sequential human trabecular bone digests were cultured for 24 h either untreated (A), treated with rhTNFα (B), PPS (0.5 μg/mL) (C) or a combination of both (D), and then examined by confocal microscopy for NGF immunoreactivity. Control cells were also immunostained using an isotype-matched negative control primary antibody (E). Images are representative of data obtained from two individual donors. Scale bars in each image represent 100 μm.
as §1

Sodium Pentosan Polysulfate [PPS]
inhibition of rhTNFα-induced MMP13 at the protein level (immunostaining) (MMP13): confirmed | NGF expression (immunostaining), combination of rhTNF-α and PPS (NGF; PPS 0.5 μg/mL + rhTNFα): downregulated; also recorded: qualitatively less staining | NGF expression (immunostaining), PPS alone vs control (NGF; PPS 0.5 μg/mL): qualitatively greater
